Our source for the IC50 values is US11591355B2 (Peloton Therapeutics, Inc., priority 2017, dated 2023).

One assay deals with T1, Human CD73 (Homo sapiens, UniProt P21589).
T1 construct: purchased R&D Systems; host or cells: CHO cells
T1 sequence (P21589 27-549): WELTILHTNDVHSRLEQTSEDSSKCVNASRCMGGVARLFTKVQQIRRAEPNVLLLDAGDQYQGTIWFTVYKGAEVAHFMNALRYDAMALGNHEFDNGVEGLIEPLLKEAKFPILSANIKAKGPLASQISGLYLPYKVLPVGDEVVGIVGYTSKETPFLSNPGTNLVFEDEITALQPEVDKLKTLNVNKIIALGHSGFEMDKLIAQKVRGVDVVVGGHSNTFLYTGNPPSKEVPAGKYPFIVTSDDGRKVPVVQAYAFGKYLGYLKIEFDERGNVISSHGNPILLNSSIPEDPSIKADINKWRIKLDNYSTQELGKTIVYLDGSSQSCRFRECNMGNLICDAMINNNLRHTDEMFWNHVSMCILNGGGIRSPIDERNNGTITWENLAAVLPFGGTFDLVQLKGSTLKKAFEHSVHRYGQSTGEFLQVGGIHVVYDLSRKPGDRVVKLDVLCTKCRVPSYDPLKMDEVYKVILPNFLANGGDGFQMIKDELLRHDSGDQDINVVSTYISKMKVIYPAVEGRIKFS
Description: CD73 Enzyme Assay. Type of assay: biochemical. As to conditions: 0.25 nM hCD73, 25 μM AMP, kinetic read at 360 nm; read-out: CD73 Enzyme Assay IC50.

The target in assay [1] is T2, CD73 on U138 human neuroglioma cells (Homo sapiens, UniProt P21589).
T2 construct: U138 cells were obtained from ATCC and cultured in DMEM with 10% FBS; host or cells: U138 human neuroglioma cells
T2 sequence (P21589 27-549): T1 sequence (P21589 27-549)
Description: CD73 Cell-Based Assay. As to conditions: U138 cells, AMP substrate, 2 hours at 37° C., inorganic phosphate by malachite green. In short, it runs like this:
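Whole U138 cells washed free of phosphate were incubated with 200 μM AMP (mixture concentration before equal-volume addition) plus compound in HEPES-buffered saline, pH 7.4, for 2 h at 37 °C, 5% CO2. Adenosine-forming activity read as inorganic phosphate released into supernatant by malachite green.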

pIC50: −log10 of the molar value.

In the case of `Cc1ccc([C@@H](C)Nc2nc(Cl)nc3c2ccn3[C@@H]2O[C@H](COCP(=O)(O)O)[C@@H](O)[C@H]2O)cc1` [Compound 136, [(2R,3S,4R,5R)-5-[2-chloro-4-[[(1R)-1-(p-tolyl)ethyl]amino]-pyrrolo[2,3-d]-pyrimidin-7-yl]-3,4-dihydroxy-tetrahydro-furan-2-yl]methoxy-methylphosphonic acid], the negative logarithm of the IC50 (pIC50) (at Human CD73; in assay [1]) was more than 8.00 throughout.
With `C[C@@H](Nc1nc(C#N)nc2c1ccn2[C@@H]1O[C@H](COCP(=O)(O)O)[C@@H](O)[C@H]1O)c1cccc(F)c1` [Compound 81, [(2R,3S,4R,5R)-5-[2-cyano-4-[[(1R)-1-(3-fluorophenyl)ethyl]-amino]pyrrolo[2,3-d]-pyrimidin-7-yl]-3,4-dihydroxy-tetrahydro-furan-2-yl]methoxy-methylphosphonic acid], the pIC50 (on Human CD73; in assay [1]) was more than 8.00 in each case.
In the case of `O=P(O)(O)CS(=O)(=O)C[C@H]1O[C@@H](n2ccc3c(NC4CC5CC5C4)nc(Cl)nc32)[C@H](O)[C@@H]1O` (stereo partly drawn) [Compound 159, [(2S,3S,4R,5R)-5-[4-(3-bicyclo[3.1.0]-hexanylamino)-2-chloro-pyrrolo[2,3-d]-pyrimidin-7-yl]-3,4-dihydroxy-tetrahydro-furan-2-yl]methyl-sulfonylmethylphos-phonic acid], the negative logarithm of the IC50 (pIC50) (at Human CD73; in assay [1]) was more than 8.00 throughout.
As to `O=P(O)(O)COC[C@H]1O[C@@H](n2ccc3c(NC4CCC(F)(F)C4)nc(Cl)nc32)[C@H](O)[C@@H]1O` (stereo partly drawn) [Compound 101, [(2R,3S,4R,5R)-5-[2-chloro-4-[(3,3-difluoro-cyclopentyl)amino]-pyrrolo[2,3-d]-pyrimidin-7-yl]-3,4-dihydroxy-tetrahydro-furan-2-yl]methoxy-methylphosphonic acid], the negative logarithm of the IC50 (pIC50) (on Human CD73; in assay [1]) was more than 8.00 in each case.
`O=P(O)(O)CS(=O)(=O)C[C@H]1O[C@@H](n2ccc3c(N4CC5CCCC5C4)nc(Cl)nc32)[C@H](O)[C@@H]1O` (stereo partly drawn) [Compound 156, [(2S,3S,4R,5R)-5-[4-(3,3a,4,5,6,6a-hexa-hydro-1H-cyclopenta-[c]pyrrol-2-yl)-2-chloro-pyrrolo[2,3-d]-pyrimidin-7-yl]-3,4-dihydroxy-tetrahydro-hydrofuran-2-yl]-methylsulfonylmethyl-phosphonic acid]: the pIC50 (at Human CD73; in assay [1]) was more than 8.00 throughout.
`C[C@@H](Nc1nc(C#N)nc2c1ccn2[C@@H]1O[C@H](COCP(=O)(O)O)[C@@H](O)[C@H]1O)c1ccc(C#N)cc1` [Compound 95, [(2R,3S,4R,5R)-5-[2-cyano-4-[[(1R)-1-(4-cyanophenyl)ethyl]-amino]pyrrolo[2,3-d]-pyrimidin-7-yl]-3,4-dihydroxy-tetrahydro-furan-2-yl]methoxy-methylphosphonic acid]: the negative-log IC50 (pIC50) (on Human CD73; in assay [1]) was 7.00 to 8.00 in each case.
Take `O=P(O)(O)COC[C@H]1O[C@@H](n2ccc3c(N4CCC(F)(F)CC4)nc(Cl)nc32)[C@H](O)[C@@H]1O` [Compound 128, [(2R,3S,4R,5R)-5-[2-chloro-4-(4,4-difluoro-1-piperidyl)pyrrolo-[2,3-d]pyrimidin-7-yl]-3,4-dihydroxy-tetrahydrofuran-2-yl]-methoxymethylphos-phonic acid]: the negative logarithm of the IC50 (pIC50) (on Human CD73; in assay [1]) was 7.00 to 8.00 each time.
With `C[C@@H](Nc1nc(Cl)nc2c1ccn2[C@@H]1O[C@H](CS(=O)(=O)CP(=O)(O)O)[C@@H](O)[C@H]1O)c1ccccc1` [Compound 154, [(2S,3S,4R,5R)-5-[2-chloro-4-[[(1R)-1-phenylethyl]amino]-pyrrolo[2,3-d]-pyrimidin-7-yl]-3,4-dihydroxy-tetrahydro-furan-2-yl]methyl-sulfonylmethylphos-phonic acid], the pIC50 (on Human CD73; in assay [1]) was more than 8.00 each time.
With `O=P(O)(O)CS(=O)(=O)C[C@H]1O[C@@H](n2ccc3c(NC4CCC(F)(F)C4)nc(Cl)nc32)[C@H](O)[C@@H]1O` (stereo partly drawn) [Compound 171, [(2S,3S,4R,5R)-5-[2-chloro-4-[(3,3-difluoro-cyclopentyl)amino]-pyrrolo[2,3-d]-pyrimidin-7-yl]-3,4-dihydroxy-tetrahydro-furan-2-yl]methyl-sulfonylmethylphos-phonic acid], the negative-log IC50 (pIC50) (on Human CD73; in assay [1]) was more than 8.00 each time.
On to `CN(c1nc(Cl)nc2c1ncn2[C@@H]1O[C@H](COCP(=O)(O)O)[C@@H](O)[C@H]1O)C1CCCC1` [Compound 186, [(2R,3S,4R,5R)-5-[2-chloro-6-[cyclopentyl-(methyl)amino]purin-9-yl]-3,4-dihydroxy-tetrahydrofuran-2-yl]-methoxymethylphos-phonic acid], for which the pIC50 at Human CD73 is more than 8.00; in assay [1] it was 7.00 to 8.00.
For `C[C@H]1CCCN1c1nc(Cl)nc2c1ccn2[C@@H]1O[C@H](COCP(=O)(O)O)[C@@H](O)[C@H]1O` [Compound 284, [(2R,3S,4R,5R)-5-[2-chloro-4-[(2S)-2-methylpyrrolidin-1-yl]pyrrolo[2,3-d]-pyrimidin-7-yl]-3,4-dihydroxy-tetrahydro-furan-2-yl]methoxy-methylphosphonic acid] the same measures were 7.00 to 8.00 and 7.00 to 8.00.
For `Cc1ccc([C@H](C)Nc2nc(Cl)nc3c2ccn3[C@@H]2O[C@H](CS(=O)(=O)CP(=O)(O)O)[C@@H](O)[C@H]2O)cc1` [Compound 170, [(2S,3S,4R,5R)-5-[2-chloro-4-[[(1S)-1-(p-tolyl)ethyl]amino]-pyrrolo[2,3-d]-pyrimidin-7-yl]-3,4-dihydroxy-tetrahydro-furan-2-yl]methyl-sulfonylmethylphos-phonic acid] the same measures were more than 8.00 and more than 8.00.
For `C[C@H](Nc1nc(Cl)nc2c1ccn2[C@@H]1O[C@H](COCP(=O)(O)O)[C@@H](O)[C@H]1O)c1ccc(C(F)(F)F)cc1` [Compound 106, [(2R,3S,4R,5R)-5-[2-chloro-4-[[(1S)-1-[4-(trifluoromethyl)-phenyl]ethyl]amino]-pyrrolo[2,3-d]-pyrimidin-7-yl]-3,4-dihydroxy-tetrahydro-furan-2-yl]methoxy-methylphosphonic acid], in that order: more than 8.00 and more than 8.00.
For the molecule `N#Cc1nc(N2CCC(F)(F)C2)c2cnn([C@@H]3O[C@H](CS(=O)(=O)CP(=O)(O)O)[C@@H](O)[C@H]3O)c2n1` [Compound 293, [(2S,3S,4R,5R)-5-[6-cyano-4-(3,3-difluoro-pyrrolidin-1-yl)-pyrazolo[3,4-d]-pyrimidin-1-yl]-3,4-dihydroxy-tetrahydro-furan-2-yl]methyl-sulfonylmethylphos-phonic acid], the pIC50 (at Human CD73; in assay [1]) was 7.00 to 8.00 each time.
For `N#Cc1nc(NC2CCCC2)c2cnn([C@@H]3O[C@H](CS(=O)(=O)CP(=O)(O)O)[C@@H](O)[C@H]3O)c2n1` [Compound 296, (((((2S,3S,4R,5R)-5-(6-cyano-4-(cyclopentylamino)-1H-pyrazolo[3,4-d]pyrimidin-1-yl)-3,4-dihydroxytetrahydrofuran-2-yl)methyl)sulfonyl)methyl)phosphonic acid], the pIC50 (at Human CD73; in assay [1]) was more than 8.00 in each case.
`O=P(O)(O)COC[C@H]1O[C@@H](n2cnc3c(NC4CCCC4)ncnc32)[C@H](O)[C@@H]1O` [Compound 32, [(2R,3S,4R,5R)-5-[6-(cyclopentylamino)-purin-9-yl]-3,4-dihydroxy-tetrahydro-furan-2-yl]methoxy-methylphosphonic acid]: the negative logarithm of the IC50 (pIC50) (on Human CD73; in assay [1]) was 6.00 to 7.00 in each case.
For the molecule `O=P(O)(O)COC[C@H]1O[C@@H](n2ccc3c(NC4CCCC4)nc(C#CC4(O)CC4)nc32)[C@H](O)[C@@H]1O` [Compound 276, ((((2R,3S,4R,5R)-5-(4-(cyclopentylamino)-2-((1-hydroxycyclopropyl)ethynyl)-7H-pyrrolo[2,3-d]pyrimidin-7-yl)-3,4-dihydroxytetrahydrofuran-2-yl)methoxy)methyl)phosphonic acid], the pIC50 (on Human CD73; in assay [1]) was more than 8.00 throughout.
On to `CC(C)(C)C(=O)OCOP(=O)(COC[C@H]1O[C@@H](n2ccc3c(NC4CCCC4)nc(Cl)nc32)[C@H](O)[C@@H]1O)OCOC(=O)C(C)(C)C` [Compound 187, [[(2R,3S,4R,5R)-5-[2-chloro-4-(cyclopentyl-amino)pyrrolo[2,3-d]-pyrimidin-7-yl]-3,4-dihydroxy-tetrahydro-furan-2-yl]methoxy-methyl-(2,2-dimethyl-propanoyloxymethoxy)-phosphoryl]oxymethyl 2,2-dimethylpropanoate], for which the negative-log IC50 (pIC50) (on Human CD73; in assay [1]) was less than 6.00 each time.
Turning to `C[C@@H](Nc1nc(Cl)nc2c1ccn2[C@@H]1O[C@H](COCP(=O)(O)O)[C@@H](O)[C@H]1O)c1ccccc1F` [Compound 87, [(2R,3S,4R,5R)-5-[2-chloro-4-[[(1R)-1-(2-fluorophenyl)ethyl]-amino]pyrrolo[2,3-d]-pyrimidin-7-yl]-3,4-dihydroxy-tetrahydro-furan-2-yl]methoxy-methylphosphonic acid], the pIC50 (on Human CD73; in assay [1]) was more than 8.00 in each case.
